For test [1], the target named is T1, Estrogen receptor beta (Homo sapiens, UniProt Q92731). Put plainly: Displacement of [3H]estradiol from human ERbeta after 18 to 24 hrs. On the technique in general: In a radioligand displacement assay an active substance lowers the binding of a labelled ligand.
Test [2] has as its target T2, Estrogen receptor (Homo sapiens, UniProt P03372).
T2 sequence (P03372 whole entry): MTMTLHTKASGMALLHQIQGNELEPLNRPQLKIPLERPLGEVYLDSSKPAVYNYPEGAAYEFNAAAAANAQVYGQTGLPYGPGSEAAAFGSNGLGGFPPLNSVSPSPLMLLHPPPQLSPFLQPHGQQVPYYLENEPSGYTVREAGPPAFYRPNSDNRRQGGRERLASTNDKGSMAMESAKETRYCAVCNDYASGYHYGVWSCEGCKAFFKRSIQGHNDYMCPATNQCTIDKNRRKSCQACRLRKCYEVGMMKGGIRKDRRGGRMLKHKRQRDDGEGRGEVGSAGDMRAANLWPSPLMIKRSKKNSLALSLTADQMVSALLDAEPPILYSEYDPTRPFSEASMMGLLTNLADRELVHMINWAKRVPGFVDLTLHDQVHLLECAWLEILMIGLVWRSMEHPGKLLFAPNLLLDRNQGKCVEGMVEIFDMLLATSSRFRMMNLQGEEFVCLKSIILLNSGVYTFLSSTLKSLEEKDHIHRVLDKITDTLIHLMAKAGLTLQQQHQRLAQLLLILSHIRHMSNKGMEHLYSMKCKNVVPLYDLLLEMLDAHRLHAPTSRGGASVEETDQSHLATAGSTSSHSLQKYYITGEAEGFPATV
Description: Agonist activity at human ERalpha expressed in HepG2 cells after 24 hrs by luciferase reporter gene assay

For test [3], the target named is T3, Estrogen receptor (Homo sapiens) (UniProt P03372).
T3 sequence (whole entry): T2 sequence (P03372 whole entry)
Put plainly: Agonist activity at human ERalpha expressed in HepG2 cells up to 10^-5 M after 24 hrs by luciferase reporter gene assay relative to E2. Type of test: functional, cell-based. (In a reporter assay the amount or activity of a reporter protein is the signal.)

Test [4] concerns the target T1, Estrogen receptor beta.
Description: Agonist activity at human ERbeta expressed in HepG2 cells after 24 hrs by luciferase reporter gene assay
For test [5], the target named is T1, Estrogen receptor beta. Put plainly: Agonist activity at human ERbeta expressed in HepG2 cells up to 10^-5 M after 24 hrs by luciferase reporter gene assay relative to E2. It is filed as functional, cell-based.
For test [6], the target named is T3, Estrogen receptor (Homo sapiens). Put plainly: Displacement of [3H]estradiol from human ERalpha after 18 to 24 hrs.

SMILES strings stand for the structures.

T1 sequence (Q92731 whole entry): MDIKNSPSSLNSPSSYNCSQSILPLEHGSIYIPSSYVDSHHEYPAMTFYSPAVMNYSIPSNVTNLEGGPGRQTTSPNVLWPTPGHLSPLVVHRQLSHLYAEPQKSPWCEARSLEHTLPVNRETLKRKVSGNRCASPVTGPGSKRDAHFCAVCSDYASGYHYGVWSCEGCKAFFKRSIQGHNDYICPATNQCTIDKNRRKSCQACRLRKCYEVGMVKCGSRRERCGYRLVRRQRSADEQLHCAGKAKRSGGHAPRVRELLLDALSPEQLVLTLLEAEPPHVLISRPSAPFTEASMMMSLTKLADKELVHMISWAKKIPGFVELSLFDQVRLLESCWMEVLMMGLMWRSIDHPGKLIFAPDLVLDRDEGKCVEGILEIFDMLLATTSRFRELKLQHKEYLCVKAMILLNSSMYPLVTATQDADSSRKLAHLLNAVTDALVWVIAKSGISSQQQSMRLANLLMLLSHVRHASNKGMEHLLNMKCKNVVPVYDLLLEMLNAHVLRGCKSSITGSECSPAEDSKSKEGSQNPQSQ

Regarding `Cc1cc(O)ccc1C1=C(c2ccc(O)cc2C)[C@H]2[C@H]3C(=O)N(c4ccccc4)C(=O)[C@H]3[C@@H]1[S+]2[O-]` (mixture of isomers), the RBA in test [1] was found to be 0.014%; in test [6], 0.016%. For the same compound, the values for the EC50 in test [2] and in test [4] were 150 nM and 800 nM, respectively. The values for the Activity in test [3] and in test [5] were 65% and 82%, respectively.

As a reminder, the EC50 is the concentration that produces a half-maximal response.

The record behind these values is ChEMBL document CHEMBL2029328, “Identification and structure-activity relationships of a novel series of estrogen receptor ligands based on 7-thiabicyclo[2.2.1]hept-2-ene-7-oxide” (J Med Chem, 2012).
